Molecules are shown by their SMILES. Bounds are passed on as bounds.

The target in experiment [1] is T1, Recombinant TYK2 (Homo sapiens, UniProt P29597).
T1 construct: purchased Carna Biosciences
Kind of experiment: JAK biochemical assay (LANCE Ultra TR-FRET), TYK2. The conditions noted are these: recombinant TYK2, TR-FRET; read-out: Biochemical Assay (μM) TYK2. The essentials:
(§1)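 % inhibition relative to vehicle was derived from TR-FRET signal proportional to ULight-substrate phosphorylation. Reactions used recombinant kinase in HEPES pH 7.5 buffer containing EGTA, MgCl2, DTT and Tween-20.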
Background: TR-FRET usually uses a lanthanide donor and a delayed reading to cut background.

The target of experiment [2] is T2, Recombinant JAK3 (Homo sapiens, UniProt P52333).
T2 construct: purchased Carna Biosciences
T2 sequence (P52333 1-1124): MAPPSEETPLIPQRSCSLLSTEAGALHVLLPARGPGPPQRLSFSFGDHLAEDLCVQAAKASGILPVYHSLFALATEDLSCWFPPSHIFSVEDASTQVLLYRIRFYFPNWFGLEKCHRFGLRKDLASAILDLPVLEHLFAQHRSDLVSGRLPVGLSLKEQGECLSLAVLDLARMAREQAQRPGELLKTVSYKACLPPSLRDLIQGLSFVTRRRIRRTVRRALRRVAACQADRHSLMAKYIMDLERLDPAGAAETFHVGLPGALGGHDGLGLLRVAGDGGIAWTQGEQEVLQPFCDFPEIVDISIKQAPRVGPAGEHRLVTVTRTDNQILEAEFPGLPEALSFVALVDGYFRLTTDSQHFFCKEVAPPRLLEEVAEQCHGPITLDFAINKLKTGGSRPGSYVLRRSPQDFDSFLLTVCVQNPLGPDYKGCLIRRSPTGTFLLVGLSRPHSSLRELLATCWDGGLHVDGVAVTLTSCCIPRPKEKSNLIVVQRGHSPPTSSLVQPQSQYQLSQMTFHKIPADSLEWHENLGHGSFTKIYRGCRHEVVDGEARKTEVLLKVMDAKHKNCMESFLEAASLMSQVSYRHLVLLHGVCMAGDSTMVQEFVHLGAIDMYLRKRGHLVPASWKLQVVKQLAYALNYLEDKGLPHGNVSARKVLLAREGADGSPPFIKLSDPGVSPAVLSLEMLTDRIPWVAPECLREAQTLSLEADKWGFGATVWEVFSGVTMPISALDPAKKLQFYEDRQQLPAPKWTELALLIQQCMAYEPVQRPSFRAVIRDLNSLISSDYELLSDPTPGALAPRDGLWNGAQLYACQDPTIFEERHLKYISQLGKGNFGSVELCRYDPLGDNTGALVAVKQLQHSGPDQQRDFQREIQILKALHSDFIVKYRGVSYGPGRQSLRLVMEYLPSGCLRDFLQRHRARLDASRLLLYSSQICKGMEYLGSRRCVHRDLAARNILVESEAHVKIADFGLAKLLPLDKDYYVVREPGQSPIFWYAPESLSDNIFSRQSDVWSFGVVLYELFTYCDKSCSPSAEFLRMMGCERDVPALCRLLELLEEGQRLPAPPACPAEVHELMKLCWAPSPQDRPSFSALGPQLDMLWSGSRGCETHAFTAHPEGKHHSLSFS
The experiment in a line: JAK biochemical assay (LANCE Ultra TR-FRET), JAK3. The conditions noted are these: recombinant JAK3, TR-FRET; read-out: Biochemical Assay (μM) JAK3. The essentials:
as §1

Experiment [3] relates to STAT3 phosphorylation by IL-6 in TF-1 cells. The experiment in a line: JAK cellular assay: STAT3 phosphorylation by IL-6 in TF-1 cells (HTRF). To be noted: Homo sapiens, TF-1, TF-1 cells, IL-6 30 ng/ml, pSTAT3 HTRF; read-out: Cell Based Assay (μM) TF-1/IL-6/pSTAT3. The class given is cell-based. In outline:
(§2)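 Phospho-STAT3 (IL-6, 30 ng/ml) and phospho-STAT5 (GMCSF, 5 ng/ml) read by HTRF in lysates after 20 min cytokine exposure, minus unstimulated-cell background. Cells were serum-starved overnight, plated at 120,000/well, given compound 30 min at 37 °C beforehand; DMSO 0.2% final.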

Experiment [4] has as its system STAT5 phosphorylation by GMCSF in TF-1 cells. Kind of experiment: JAK cellular assay: STAT5 phosphorylation by GMCSF in TF-1 cells (HTRF). The class given is cell-based. To be noted: Homo sapiens; TF-1 cells, GMCSF 5 ng/ml, pSTAT5 HTRF; read-out: Cell Based Assay (μM) TF-1/GMCSF/pSTAT5. In outline: as §2
The target in experiment [5] is T3, Recombinant JAK1 (Homo sapiens, UniProt P23458).
T3 construct: purchased Carna Biosciences
The experiment in a line: JAK biochemical assay (LANCE Ultra TR-FRET), JAK1. The conditions noted are these: recombinant JAK1, TR-FRET; read-out: Biochemical Assay (μM) JAK1. The essentials: as §1

Experiment [6] deals with T4, Recombinant JAK2 (Homo sapiens, UniProt O60674).
T4 construct: purchased Carna Biosciences
Kind of experiment: JAK biochemical assay (LANCE Ultra TR-FRET), JAK2. To be noted: recombinant JAK2, TR-FRET; read-out: Biochemical Assay (μM) JAK2. The essentials: as §1

T1 sequence (P29597 whole entry): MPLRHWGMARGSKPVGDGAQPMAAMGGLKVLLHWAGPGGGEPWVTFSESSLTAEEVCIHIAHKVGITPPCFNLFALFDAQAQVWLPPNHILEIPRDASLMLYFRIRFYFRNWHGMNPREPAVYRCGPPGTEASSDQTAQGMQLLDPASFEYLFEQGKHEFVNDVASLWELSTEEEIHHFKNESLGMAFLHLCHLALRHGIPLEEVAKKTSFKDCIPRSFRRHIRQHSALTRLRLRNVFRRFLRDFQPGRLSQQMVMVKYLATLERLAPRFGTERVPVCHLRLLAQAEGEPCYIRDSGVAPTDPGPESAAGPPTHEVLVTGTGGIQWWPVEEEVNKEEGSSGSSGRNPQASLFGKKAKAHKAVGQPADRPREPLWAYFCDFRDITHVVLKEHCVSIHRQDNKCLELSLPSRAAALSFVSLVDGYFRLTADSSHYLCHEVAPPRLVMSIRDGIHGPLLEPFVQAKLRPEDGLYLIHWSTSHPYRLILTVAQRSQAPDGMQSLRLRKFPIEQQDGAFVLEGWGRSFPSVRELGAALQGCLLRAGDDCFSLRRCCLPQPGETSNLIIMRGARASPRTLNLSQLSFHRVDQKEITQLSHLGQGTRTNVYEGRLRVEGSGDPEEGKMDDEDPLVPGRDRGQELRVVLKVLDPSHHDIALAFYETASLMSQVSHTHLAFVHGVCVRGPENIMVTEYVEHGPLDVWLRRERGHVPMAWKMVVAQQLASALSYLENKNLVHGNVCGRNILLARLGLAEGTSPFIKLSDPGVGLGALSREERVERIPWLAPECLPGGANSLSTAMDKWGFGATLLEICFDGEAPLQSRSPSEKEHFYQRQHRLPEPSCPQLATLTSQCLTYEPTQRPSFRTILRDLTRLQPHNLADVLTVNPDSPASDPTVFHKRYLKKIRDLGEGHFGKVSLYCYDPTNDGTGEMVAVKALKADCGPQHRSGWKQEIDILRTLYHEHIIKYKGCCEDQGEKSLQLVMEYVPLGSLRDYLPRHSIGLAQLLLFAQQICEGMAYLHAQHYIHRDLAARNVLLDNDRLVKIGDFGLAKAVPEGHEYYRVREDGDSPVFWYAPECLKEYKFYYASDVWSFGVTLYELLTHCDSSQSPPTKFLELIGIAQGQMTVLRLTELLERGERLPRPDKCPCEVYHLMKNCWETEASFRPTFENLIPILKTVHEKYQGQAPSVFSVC
T3 sequence (P23458 whole entry): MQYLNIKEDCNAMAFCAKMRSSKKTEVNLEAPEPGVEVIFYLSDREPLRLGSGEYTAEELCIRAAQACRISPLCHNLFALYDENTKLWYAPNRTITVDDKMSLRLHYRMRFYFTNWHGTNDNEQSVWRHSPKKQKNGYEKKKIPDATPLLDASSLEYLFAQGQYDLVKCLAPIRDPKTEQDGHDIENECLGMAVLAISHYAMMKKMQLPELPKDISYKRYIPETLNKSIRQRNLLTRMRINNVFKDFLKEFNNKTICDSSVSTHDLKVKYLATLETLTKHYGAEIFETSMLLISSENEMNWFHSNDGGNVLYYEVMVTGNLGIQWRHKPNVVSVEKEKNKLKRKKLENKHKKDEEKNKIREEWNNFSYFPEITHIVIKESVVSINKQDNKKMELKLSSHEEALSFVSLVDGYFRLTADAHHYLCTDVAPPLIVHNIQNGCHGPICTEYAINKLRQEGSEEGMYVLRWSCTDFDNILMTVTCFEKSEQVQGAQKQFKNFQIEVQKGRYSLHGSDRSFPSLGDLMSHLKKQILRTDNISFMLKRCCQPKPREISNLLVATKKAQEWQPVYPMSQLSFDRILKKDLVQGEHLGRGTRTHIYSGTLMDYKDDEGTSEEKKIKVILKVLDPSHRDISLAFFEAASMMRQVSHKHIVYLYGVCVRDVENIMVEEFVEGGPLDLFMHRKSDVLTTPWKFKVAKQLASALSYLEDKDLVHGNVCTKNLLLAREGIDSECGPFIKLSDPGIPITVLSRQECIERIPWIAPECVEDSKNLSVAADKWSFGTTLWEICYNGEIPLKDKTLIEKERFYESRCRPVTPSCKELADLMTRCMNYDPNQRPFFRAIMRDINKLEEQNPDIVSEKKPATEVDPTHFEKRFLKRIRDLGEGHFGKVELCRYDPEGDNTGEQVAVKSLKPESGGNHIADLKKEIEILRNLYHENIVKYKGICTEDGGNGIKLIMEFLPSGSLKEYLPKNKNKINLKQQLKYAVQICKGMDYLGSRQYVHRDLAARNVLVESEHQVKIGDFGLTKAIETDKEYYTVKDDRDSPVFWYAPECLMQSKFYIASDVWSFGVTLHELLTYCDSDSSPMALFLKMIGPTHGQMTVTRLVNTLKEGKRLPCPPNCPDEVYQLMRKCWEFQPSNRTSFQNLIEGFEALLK
T4 sequence (O60674 whole entry): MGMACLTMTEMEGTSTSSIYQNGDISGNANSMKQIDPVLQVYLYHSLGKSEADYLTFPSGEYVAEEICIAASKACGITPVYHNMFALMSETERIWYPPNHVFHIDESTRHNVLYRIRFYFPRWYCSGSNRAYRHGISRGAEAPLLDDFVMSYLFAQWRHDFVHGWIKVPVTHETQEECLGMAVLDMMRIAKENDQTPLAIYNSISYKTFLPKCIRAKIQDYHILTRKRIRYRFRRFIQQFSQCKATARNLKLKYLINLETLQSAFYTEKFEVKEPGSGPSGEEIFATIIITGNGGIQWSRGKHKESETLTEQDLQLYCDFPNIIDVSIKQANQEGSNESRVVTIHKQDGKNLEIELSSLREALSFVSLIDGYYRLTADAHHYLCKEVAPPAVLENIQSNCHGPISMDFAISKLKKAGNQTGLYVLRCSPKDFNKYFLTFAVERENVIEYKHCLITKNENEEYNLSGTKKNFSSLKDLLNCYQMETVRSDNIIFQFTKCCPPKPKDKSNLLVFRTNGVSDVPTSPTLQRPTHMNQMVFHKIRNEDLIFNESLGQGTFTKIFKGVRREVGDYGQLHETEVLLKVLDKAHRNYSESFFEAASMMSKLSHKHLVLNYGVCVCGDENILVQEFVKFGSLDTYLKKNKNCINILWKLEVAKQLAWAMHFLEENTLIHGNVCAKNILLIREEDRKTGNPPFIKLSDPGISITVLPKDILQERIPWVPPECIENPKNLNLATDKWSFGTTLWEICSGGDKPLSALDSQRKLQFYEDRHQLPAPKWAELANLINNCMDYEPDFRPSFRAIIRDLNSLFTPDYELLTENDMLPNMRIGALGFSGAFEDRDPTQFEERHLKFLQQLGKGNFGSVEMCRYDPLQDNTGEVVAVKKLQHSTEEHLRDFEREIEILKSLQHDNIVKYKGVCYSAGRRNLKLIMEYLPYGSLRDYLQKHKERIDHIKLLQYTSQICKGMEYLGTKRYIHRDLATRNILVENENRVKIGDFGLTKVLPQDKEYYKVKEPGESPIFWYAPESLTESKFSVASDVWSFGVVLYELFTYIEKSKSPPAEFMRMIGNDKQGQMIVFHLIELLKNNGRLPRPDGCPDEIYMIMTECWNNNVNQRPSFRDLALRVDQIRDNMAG

In the case of `N#CC(NC(=O)n1cc(-c2ccnc3[nH]c(=O)[nH]c23)cn1)C1CC1` (stereo not drawn) [Example 1043, N-(cyano(cyclopropyl)methyl)-4-(2,3-dihydro-2-oxo-1H-imidazo[4,5-b]pyridin-7-yl)-1H-pyrazole-1-carboxamide], the IC50 in experiment [1] was 0.053 µM; in experiment [2] it was 0.123 µM; in experiment [3], 4.7 µM; in experiment [4], greater than 10 µM; in experiment [5], 0.03 µM; in experiment [6], 0.031 µM.
`CC(C)[C@@H](C#N)NC(=O)n1cc(-c2ccnc3[nH]c(=O)[nH]c23)cn1` [Example 1047, N-((S)-1-cyano-2-methylpropyl)-4-(2,3-dihydro-2-oxo-1H-imidazo[4,5-b]pyridin-7-yl)-1H-pyrazole-1-carboxamide]: the IC50 in experiment [1] was less than 0.5 µM; in experiment [2], less than 0.5 µM; in experiment [3], 4.9 µM; in experiment [4], 10 µM; in experiment [5], less than 0.5 µM; in experiment [6], less than 0.5 µM.
For `N#CCC(NC(=O)n1cc(-c2ccnc3[nH]c(=O)[nH]c23)cn1)C1CC1` (stereo not drawn) [Example 1051, N-(2-cyano-1-cyclopropylethyl)-4-(2,3-dihydro-2-oxo-1H-imidazo[4,5-b]pyridin-7-yl)-1H-pyrazole-1-carboxamide], the IC50 in experiment [1] was less than 0.5 µM; in experiment [2] it was greater than 1 µM; in experiment [3] it was less than 10 µM; in experiment [4] it was greater than 10 µM; in experiment [5] it was less than 0.5 µM; in experiment [6], less than 0.5 µM.
On to `O=C(NCC(F)(F)F)n1cc(-c2ccnc3[nH]c(-c4ccccc4)nc23)cn1` [Example 1094, N-(2,2,2-trifluoroethyl)-4-(2-phenyl-3H-imidazo[4,5-b]pyridin-7-yl)-1H-pyrazole-1-carboxamide], for which the IC50 in experiment [1] was less than 0.5 µM; in experiment [2] it was less than 0.5 µM; in experiment [3] it was greater than 1 µM; in experiment [4] it was greater than 1 µM; in experiment [5], less than 0.5 µM; in experiment [6], less than 0.5 µM.
With `CC(c1ccc(-n2cc(-c3ccnc4[nH]cnc34)cn2)nc1)S(C)(=O)=O` (stereo not drawn) [Example 1158, 7-(1-(5-(1-(methylsulfonyl)ethyl)pyridin-2-yl)-1H-pyrazol-4-yl)-3H-imidazo[4,5-b]pyridine], the IC50 in experiment [1] was greater than 1 µM; in experiment [2], greater than 0.1 µM; in experiment [3] it was greater than 1 µM; in experiment [4] it was greater than 1 µM; in experiment [5] it was less than 0.1 µM; in experiment [6] it was greater than 0.1 µM.
Take `CC(NC(=O)n1cc(-c2ccnc3[nH]c(=O)[nH]c23)cn1)C(=O)N1CC(C#N)C1` (stereo not drawn) [Example 1058, N-(1-(3-cyanoazetidin-1-yl)-1-oxopropan-2-yl)-4-(2-oxo-2,3-dihydro-1H-imidazo[4,5-b]pyridin-7-yl)-1H-pyrazole-1-carboxamide]: the IC50 is greater than 10 µM in experiment [1]; greater than 10 µM in experiment [2]; greater than 10 µM in experiment [3]; greater than 10 µM in experiment [4]; greater than 1 µM in experiment [5]; greater than 1 µM in experiment [6].
For `OC(c1cccc(-n2cc(-c3ccnc4[nH]cnc34)cn2)n1)C(F)(F)F` (stereo not drawn) [Example 1170, 1-(6-(4-(3H-imidazo[4,5-b]pyridin-7-yl)-1H-pyrazol-1-yl)pyridin-2-yl)-2,2,2-trifluoroethanol], the IC50 in experiment [1] was greater than 1 µM; in experiment [2], greater than 0.05 µM; in experiment [3] it was greater than 10 µM; in experiment [4], greater than 10 µM; in experiment [5], greater than 0.1 µM; in experiment [6], greater than 0.1 µM.
`N#CCC(=O)Nc1ccc(-n2cc(-c3ccnc4[nH]cnc34)cn2)cc1` [Example 1102, N-(4-(4-(3H-imidazo[4,5-b]pyridin-7-yl)-1H-pyrazol-1-yl)phenyl)-2-cyanoacetamide]: the IC50 is greater than 1 µM in experiment [1]; greater than 0.5 µM in experiment [2]; greater than 10 µM in experiment [3]; greater than 10 µM in experiment [4]; less than 0.5 µM in experiment [5]; greater than 0.5 µM in experiment [6].
With `CCN1CC(C(O)(c2ccc(-n3cc(-c4ccnc5[nH]cnc45)cn3)nc2)C(F)(F)F)C1` (stereo not drawn) [Example 1239, 1-(6-(4-(3H-imidazo[4,5-b]pyridin-7-yl)-1H-pyrazol-1-yl)pyridin-3-yl)-1-(1-ethylazetidin-3-yl)-2,2,2-trifluoroethanol], the IC50 in experiment [1] came to 0.06 µM; in experiment [2] it was 0.023 µM; in experiment [3], 0.05 µM; in experiment [4] it was 0.26 µM; in experiment [5] it was 0.006 µM; in experiment [6], 0.056 µM.
`N#CCc1ccc(-n2cc(-c3ccnc4[nH]cnc34)cn2)c(F)c1` [Example 1103, 2-(4-(4-(3H-imidazo[4,5-b]pyridin-7-yl)-1H-pyrazol-1-yl)-3-fluorophenyl)acetonitrile]: the IC50 was greater than 10 µM in experiment [1]; greater than 10 µM in experiment [2]; greater than 1 µM in experiment [3]; greater than 10 µM in experiment [4]; greater than 0.5 µM in experiment [5]; greater than 0.5 µM in experiment [6].
For `FC(F)(F)C(OCCNC1CC1)c1ccc(-n2cc(-c3ccnc4[nH]cnc34)cn2)nc1` (stereo not drawn) [Example 1197, N-(2-(1-(6-(4-(3H-imidazo[4,5-b]pyridin-7-yl)-1H-pyrazol-1-yl)pyridin-3-yl)-2,2,2-trifluoroethoxy)ethyl)cyclopropanamine], the IC50 in experiment [1] is greater than 0.5 µM; in experiment [2], less than 0.1 µM; in experiment [3] it was greater than 0.3 µM; in experiment [4], greater than 1 µM; in experiment [5], less than 0.1 µM; in experiment [6], less than 0.1 µM.
Regarding `CC(CN1CC(C#N)C1)NC(=O)n1cc(-c2ccnc3[nH]cnc23)cn1` (stereo not drawn) [Example 1068, N-(1-(3-cyanoazetidin-1-yl)propan-2-yl)-4-(3H-imidazo[4,5-b]pyridin-7-yl)-1H-pyrazole-1-carboxamide], the IC50 in experiment [1] was greater than 1 µM; in experiment [2] it was greater than 1 µM; in experiment [3], greater than 10 µM; in experiment [4], greater than 10 µM; in experiment [5], greater than 1 µM; in experiment [6], greater than 1 µM.
`CN(CCC(c1ccc(-n2cc(-c3ccnc4[nH]cnc34)cn2)nc1)C(F)(F)F)C1CC1` (stereo not drawn) [Example 1195, N-(3-(6-(4-(3H-imidazo[4,5-b]pyridin-7-yl)-1H-pyrazol-1-yl)pyridin-3-yl)-4,4,4-trifluorobutyl)-N-methylcyclopropanamine]: the IC50 in experiment [1] is greater than 1 µM; in experiment [2], less than 0.1 µM; in experiment [3], greater than 0.5 µM; in experiment [4] it was greater than 1 µM; in experiment [5] it was less than 0.1 µM; in experiment [6], less than 0.1 µM.
On to `CCN1CCC(C(O)(c2ccc(-n3cc(-c4ccnc5[nH]cnc45)cn3)nc2)C(F)(F)F)CC1` (stereo not drawn) [Example 1221, 1-(6-(4-(3H-imidazo[4,5-b]pyridin-7-yl)-1H-pyrazol-1-yl)pyridin-3-yl)-1-(1-ethylpiperidin-4-yl)-2,2,2-trifluoroethanol], for which the IC50 in experiment [1] is greater than 0.1 µM; in experiment [2], less than 0.1 µM; in experiment [3], greater than 0.75 µM; in experiment [4] it was greater than 1 µM; in experiment [5], less than 0.1 µM; in experiment [6], less than 0.1 µM.

The values are drawn from patent publication US12516056B2, “Compounds for inhibition of janus kinase 1” (MANKIND PHARMA LTD., priority 2019, dated 2026).
